Here are results for two molecules from US11618743B2, “Herbicidal compounds” (SYNGENTA PARTICIPATIONS AG, priority 2017, dated 2023).

Structures are written as SMILES.

Holding throughout (assay): Post-emergence efficacy, Method C
Holding throughout (format): in vivo
What all share (details): Application Rate 400 g/Ha, evaluated at 21 days

Test [1] has as its system Lolium perenne (LOLPE). The protocol: (§1) An “instant formulation”, known as the IF50, containing 50 g/L of the “technical” (i.e. unformulated) active ingredient was prepared by dissolving the active ingredient in a mixture of organic solvents and emulsifier, details of which are provided in the table. This IF50 was then mixed with a small, variable amount of acetone to aid dissolution, before addition of a 1% v/v aqueous solution of the adjuvant Empicol ESC70 3EO (Sodium lauryl ether sulphate) and 1% v/v Ammonium sulphate, as the aqueous diluent, to form an aqueous spray solution which contains a predetermined concentration of the active ingredient (which varies depending on the application rate of the active ingredient to the plants).
(§2) Composition of the mixture of organic solvents and emulsifier used as a base for the instant formulation.
(§3) This aqueous spray solution was then sprayed onto the plants after about 21 days' cultivation. The plants were grown from seeds sown in standard soil, placed in a glasshouse under controlled conditions (at 24/18° C., day/night; 14 hours light; 65% humidity). After spray application the plants were then grown on in a glasshouse under the same conditions and watered twice daily. The test was evaluated at 21 days (100=total damage to plant; 0=no damage to plant).
(§4) Ipomoea hederacea (IPOHE), Amaranthus palmeri (AMAPA), Lolium perenne (LOLPE), Eleusine indica (ELEIN), Echinochloa crus-galli (ECHCG), Conyza canadensis (ERICA)

In test [2] the test system is Amaranthus palmeri (AMAPA). As to the method: as §1, §2, §3, §4
Test [3] concerns Conyza canadensis (ERICA). As to the method: as §1, §2, §3, §4
For test [4], the system named is Ipomoea hederacea (IPOHE). As to the method: as §1, §2, §3, §4
Test [5] relates to Echinochloa crus-galli (ECHCG). The protocol: as §1, §2, §3, §4

Consider `Cl.O=S(=O)([O-])CC[n+]1ccc(-c2ccncc2)cn1` [Compound A27], for which the “Control of weed species after post-emergence application, LOLPE (100=total damage to plant; 0=no damage to plant)” value in test [1] was 68. Moreover, the “Control of weed species after post-emergence application, AMAPA (100=total damage to plant; 0=no damage to plant)” value in test [2] was determined as 77. In test [3], the “Control of weed species after post-emergence application, ERICA (100=total damage to plant; 0=no damage to plant)” value turned out to be 65. The “Control of weed species after post-emergence application, IPOHE (100=total damage to plant; 0=no damage to plant)” value in test [4] worked out at 90. Besides, the “Control of weed species after post-emergence application, ECHCG (100=total damage to plant; 0=no damage to plant)” value in test [5] worked out at 43.

For `O=S(=O)([O-])C[n+]1ccc(-c2ncccn2)cn1` [Compound A3, (4-pyrimidin-2-ylpyridazin-1-ium-1-yl)methanesulfonate], the “Control of weed species after post-emergence application, ECHCG (100=total damage to plant; 0=no damage to plant)” value in test [5] is 13.
